The subject of series [1] is HeLaS3 cells. Nature of the series: SRB antiproliferation assay, HeLaS3. The note with it: read-out: IC50 HeLaS3, 72 h, mean ± SD of three experiments.
The test system of series [2] is HeLaS3 cells. Put plainly: MTT proliferation assay, HeLaS3. In kind it is cell-based, human. The note with it: increasing doses, 72 h.
Series [3] has as its system KB-vin cells. Put plainly: Mitochondrial membrane potential assay, KB-vin. Type of series: cell-based, human. The note with it: 24 h treatment.
The target in series [4] is T1, NQO1 (Homo sapiens, UniProt P15559). Nature of the series: NQO1 activity assay kit in treated HeLaS3 cells. The note with it: HeLaS3, 24 h, serial concentrations.
T1 sequence (P15559 whole entry): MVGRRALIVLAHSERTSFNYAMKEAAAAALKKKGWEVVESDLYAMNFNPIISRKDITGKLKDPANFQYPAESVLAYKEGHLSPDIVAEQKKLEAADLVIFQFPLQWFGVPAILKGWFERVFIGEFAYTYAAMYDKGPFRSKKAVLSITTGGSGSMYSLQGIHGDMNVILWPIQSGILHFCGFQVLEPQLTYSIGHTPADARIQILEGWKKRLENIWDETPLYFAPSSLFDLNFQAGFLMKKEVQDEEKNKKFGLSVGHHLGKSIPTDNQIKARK
The test system of series [5] is HeLaS3 cells. Put plainly: ROS generation, HeLaS3. Type of series: cell-based, human. The note with it: HeLaS3, 24 h treatment.
In series [6] the test system is KB-vin cells. Nature of the series: ROS generation, KB-vin. In kind it is cell-based, human. The note with it: 24 h treatment.
For series [7], the system named is KB-vin cells. Nature of the series: NQO1-dependent cytotoxicity. The note with it: SRB, 72 h.
The test system of series [8] is normal endometrial epithelial cells (EECs). Put plainly: MTT proliferation assay, normal endometrial epithelial cells. In kind it is cell-based. The note with it: increasing doses, 72 h.
The target in series [9] is T1, NQO1. Put plainly: NQO1 inhibitory kinetic assay. Type of series: biochemical.
The target of series [10] is T1, NQO1. Put plainly: NQO1 activity assay kit in treated KB-vin cells. The settings on record: 24 h, serial concentrations.
Series [11] has as its system HeLaS3 cells. Nature of the series: Mitochondrial membrane potential assay, HeLaS3. Type of series: cell-based, human. The note with it: HeLaS3, 24 h treatment.
In series [12] the test system is HeLaS3 cells. Nature of the series: NQO1-dependent cytotoxicity. The note with it: HeLaS3, SRB, 72 h.
Series [13] relates to HeLaS3 cells. Put plainly: Western blot of apoptotic proteins. In kind it is cell-based, human. The settings on record: HeLaS3, 72 h.

“6-((4-([1,4’ -Bipiperidin]-1’ -yl)phenyl)amino)quinoline-5,8-dione [Compound 6f]”: in [1], the IC50 turned out to be 5.16 µM.
With “7-((4-([1,4’ -Bipiperidin]-1’ -yl)phenyl)amino)quinoline-5,8-dione [Compound 7f]”, the IC50 in series [1] is 5.07 ± 0.1 µM.
With `CN1CCN(c2ccc(NC3=CC(=O)c4cccnc4C3=O)cc2)CC1` [Compound 7d, 7-((4-(4-Methylpiperazin-1-yl)phenyl)amino)quinoline-5,8-dione], the “effect on HeLaS3 cells, same treatment regimen” value in series [2] is given as “induced major HeLaS3 cell death”. The mitochondrial membrane potential result in series [3] and in [11] was “significantly decreased in a dose-dependent manner” in each case. For the same molecule, the “NQO1 activity after treatment” value in series [4] and in series [10] was “inhibited dose-dependently” each time. The ROS production entry in series [5] and in series [6] was “increased dose-dependently” each time. Also, the “cell viability of compound-treated cells on addition of DIC and NAc” value in series [7] and in [12] was “significantly increased” throughout. Besides, the “effect on survival of non-tumor EECs” value in series [8] is “no significant effect”. Besides, the “mode of NQO1 inhibition” value in series [9] (Lineweaver-Burk plots) is reported as “competitive inhibitors”. Moreover, the “maximum rate (Vmax)” value in series [9] (remained the same as inhibitor concentration increased) amounted to 11.03 ± 1.5 nmol/mg protein/20s. Besides, the “cleavage of caspase-3” value in [13] is “induced more cleavage of caspase-3 than the control group”. Moreover, the “levels of anti-apoptotic Bcl-2 expression” value in series [13] (dose-dependent) is listed as “reduced”. The “relative levels of pro-apoptotic Bax expression” value in series [13] (dose-dependent) was “dramatically increased”.
As for `O=C1C=C(NCCc2c[nH]c3ccccc23)C(=O)c2ncccc21` [Compound 7a, 7-((2-(1H-Indol-3-yl)ethyl)amino)quinoline-5,8-dione], the mitochondrial membrane potential result in series [3] and in [11] was “significantly decreased in a dose-dependent manner” each time. Further, the “NQO1 activity after treatment” value in series [4] and in [10] was “inhibited dose-dependently” each time. The ROS production result in [5] and in series [6] was “increased dose-dependently” in each case.
Take `COC(=O)/C=C/c1cccc(CNC2=CC(=O)c3ncccc3C2=O)c1` [Compound 6h, (E)-Methyl 3-(3-(((5,8-dioxo-5,8-dihydroquinolin-6-yl)amino)methyl)phenyl)acrylate]: the mitochondrial membrane potential result in series [3] and in series [11] was “significantly decreased in a dose-dependent manner” throughout. Also, the “NQO1 activity after treatment” value in series [4] and in [10] was “inhibited dose-dependently” each time. In addition, the ROS production entry in [5] and in series [6] was “increased dose-dependently” throughout.
As to `CN1CCN(c2ccc(NC3=CC(=O)c4ncccc4C3=O)cc2)CC1` [Compound 6d, 6-((4-(4-Methylpiperazin-1-yl)phenyl)amino)quinoline-5,8-dione], the mitochondrial membrane potential result in series [3] and in series [11] was “significantly decreased in a dose-dependent manner” each time. Besides, the ROS production result in series [5] and in series [6] was “increased dose-dependently” in each case.

These data come from article PMC6421848 (European journal of medicinal chemistry, 2018).
